# In patent publication US20250275959A1, “COMPOUNDS AND METHODS OF THEIR USE” (LEXICON PHARMACEUTICALS, INC., priority 2024, published 2025):
# Assays:
# hACSL5 [1] = biological target: T1, hACSL5 (Homo sapiens (Human), UniProt Q9ULC5); assay: Cell-based assay (CBA) with B12FA in hACSL5-transfected Expi293F / FlpIn TRex293 cells; settings: hACSL5-expressing cells
# Description: To assess the cell penetration and cellular activity of the compounds, a cell-based assay (CBA) was used to detect compound potency in living cells. The assay utilized the fluorescent fatty acid analogue B12FA, a boron-dipyrromethene (BODIPY™) labelled C12 fatty acid that can be incorporated into glycerophosphocholine in the cytoplasmic oil droplets of live cells. A concentration-dependent, red-shifted fluorescence can be induced by the formation of BODIPY™ excimers in the oil droplets.
# Expi293F cells transfected with full length hACSL5 plasmid were selected using 1 mg/mL G418 culture medium and clones were selected by in vitro whole cell lysate (WCL) assay. The cell passage number used in the Expi293 CBA assay could not be used beyond 10 passages due to a decrease in hACSL5 expression. Therefore, a CBA using FlpIn TRex293 cells for inducible expression of hACSL5 was also established.
# FlpIn TRex293 cells transfected with hACSL5 plasmid were selected in culture medium containing 15 µg/ml Blasticidin and 150 µg/ml Hygromycin. For cell-based assays, stable transfected hACSL5 cells were seeded onto a 96-well plate at 30-50k/well and incubated overnight. For the inducible system, […] tetracycline (or doxycycline) was added to culture medium of FlpIn TRex293 hACSL5 cells on the day before the assay to induce expression of hACSL5. The next day, growth media was replaced with culture medium without FBS and glucose (DMEM glucose (-), ThermoFisher) and cells were incubated for an hour before treating cells with serial diluted compounds containing 20 µM B12FA (ThermoFisher) for another 3 hours in the above medium. Cells were then fixed in 4% formaldehyde for 10 minutes and washed twice with PBS. The plate was read using the Cytation 5 imaging system with an excitation wavelength of 485 nm and observed emissions at 630 nm and 520 nm. The percentage of inhibition was calculated as: […]
# wherein A is the ratio of emission intensities at 630 nm/520 nm in the absence of inhibitor (maximum ratio); B is the ratio of the intensities at those wavelengths in the presence of […] of the test compound or non-induced cells (minimum ratio); and X is the ratio of the intensities at a given compound concentration.
# Concentration-response titration points for each compound tested were filled to the Hill equation yielding concentrations of half maximal inhibition […] and maximal inhibition values.
# Target sequence in this assay (Q9ULC5 whole entry): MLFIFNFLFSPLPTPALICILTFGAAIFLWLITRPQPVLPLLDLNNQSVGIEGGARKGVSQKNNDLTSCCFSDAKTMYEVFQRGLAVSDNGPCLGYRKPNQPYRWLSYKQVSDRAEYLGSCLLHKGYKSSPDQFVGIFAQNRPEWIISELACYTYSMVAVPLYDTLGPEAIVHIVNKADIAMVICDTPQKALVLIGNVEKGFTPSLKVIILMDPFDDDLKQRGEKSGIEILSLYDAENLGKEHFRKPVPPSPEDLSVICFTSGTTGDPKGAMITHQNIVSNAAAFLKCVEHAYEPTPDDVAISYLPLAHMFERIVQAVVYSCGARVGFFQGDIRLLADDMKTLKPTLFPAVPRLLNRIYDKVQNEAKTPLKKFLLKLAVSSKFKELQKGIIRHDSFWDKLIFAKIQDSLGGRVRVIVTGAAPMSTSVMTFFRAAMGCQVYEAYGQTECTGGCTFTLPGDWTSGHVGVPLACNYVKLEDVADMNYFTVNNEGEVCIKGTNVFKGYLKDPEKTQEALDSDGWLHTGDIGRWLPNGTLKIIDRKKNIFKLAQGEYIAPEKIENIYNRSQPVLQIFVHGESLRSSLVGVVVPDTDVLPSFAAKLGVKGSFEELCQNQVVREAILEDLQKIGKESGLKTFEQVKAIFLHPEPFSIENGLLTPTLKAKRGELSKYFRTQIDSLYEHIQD
# hACSL5 [2] = biological target: T1, hACSL5; assay: Human ACSL5 coupled enzyme Amplex Red assay; assay type: biochemical; settings: read-out: hACSL5 IC50
# Method in brief: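 Amplex Red coupled readout: 1 mM ATP, 25 μM oleate and 30 μM CoA were added to compound-preincubated enzyme (20 nM, residues 33-683, insect-cell expressed, His-tagged) with coupling peroxidase and acyl-CoA oxidase at pH 7.6. Signal was read at 535/590 nm after 10 minutes at 25° C., and Hill fits yielded half-maximal and maximal inhibition.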
# Target sequence in this assay (Q9ULC5 33-683): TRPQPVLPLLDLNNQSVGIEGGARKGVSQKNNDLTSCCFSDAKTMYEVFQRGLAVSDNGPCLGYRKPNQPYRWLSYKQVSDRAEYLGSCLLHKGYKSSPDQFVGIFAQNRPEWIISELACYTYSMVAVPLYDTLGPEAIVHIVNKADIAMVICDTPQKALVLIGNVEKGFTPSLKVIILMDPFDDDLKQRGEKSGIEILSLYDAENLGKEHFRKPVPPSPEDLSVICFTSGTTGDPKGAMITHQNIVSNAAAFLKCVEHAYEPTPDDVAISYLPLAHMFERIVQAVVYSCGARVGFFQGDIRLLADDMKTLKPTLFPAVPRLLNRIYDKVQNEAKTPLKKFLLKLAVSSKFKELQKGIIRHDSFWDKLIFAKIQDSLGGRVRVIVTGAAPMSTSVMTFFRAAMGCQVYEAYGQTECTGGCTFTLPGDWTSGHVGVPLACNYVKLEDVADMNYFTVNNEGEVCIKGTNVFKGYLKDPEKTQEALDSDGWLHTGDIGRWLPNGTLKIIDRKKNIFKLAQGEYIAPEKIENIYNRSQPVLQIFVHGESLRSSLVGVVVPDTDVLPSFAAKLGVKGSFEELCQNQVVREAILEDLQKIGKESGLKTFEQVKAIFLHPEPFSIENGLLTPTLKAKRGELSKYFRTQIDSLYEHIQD
SMILES,IC50 (hACSL5 [1]) [nM],IC50 (hACSL5 [2]) [nM]
"CC[C@@H](Oc1ccc(C(=O)NS(=O)(=O)N2CCN(CC(C)(C)F)CC2)c(F)c1F)c1ccc(OCC2CC2)cn1 [(R)-4-(1-(5-(cyclopropylmethoxy)pyridin-2-yl)propoxy)-2,3-difluoro-N-((4-(2-fluoro-2-methylpropyl)piperazin-1-yl)sulfonyl)benzamide]",< 100,< 100
"CC[C@@H](Oc1ccc(C(=O)NS(=O)(=O)N2CCN(CC(C)(C)O)CC2)c(F)c1F)c1ccc(OCC2CC2)cn1 [(R)-4-(1-(5-(cyclopropylmethoxy)pyridin-2-yl)propoxy)-2,3-difluoro-N-((4-(2-hydroxy-2-methylpropyl)piperazin-1-yl)sulfonyl)benzamide]",100 to 500,< 100
"CC[C@@H](Oc1ccc(C(=O)NS(=O)(=O)N2CCN(CCOC)CC2)c(F)c1F)c1ccc(OCC2CC2)cn1 [(R)-4-(1-(5-(cyclopropylmethoxy)pyridin-2-yl)propoxy)-2,3-difluoro-N-((4-(2-methoxyethyl)piperazin-1-yl)sulfonyl)benzamide]",< 100,< 100
"CC[C@@H](Oc1ccc(C(=O)NS(=O)(=O)c2ccc(OCCN3CCOCC3)cc2)c(F)c1F)c1ccc(OCC2CC2)cn1 [(R)-4-(1-(5-(cyclopropylmethoxy)pyridin-2-yl)propoxy)-2,3-difluoro-N-((4-(2-morpholinoethoxy)phenyl)sulfonyl)benzamide]",> 500,< 100
"CC[C@@H](Oc1ccc(C(=O)NS(=O)(=O)c2ccc(OC3CCN(CC(C)(C)O)CC3)cc2)c(F)c1F)c1ccc(OCC2CC2)cn1 [(R)-4-(1-(5-(cyclopropylmethoxy)pyridin-2-yl)propoxy)-2,3-difluoro-N-((4-((1-(2-hydroxy-2-methylpropyl)piperidin-4-yl)oxy)phenyl)sulfonyl)benzamide]",100 to 500,< 100
"CC[C@@H](Oc1ccc(C(=O)NS(=O)(=O)N2CCC(OC3CCN(CC(C)(C)O)CC3)CC2)c(F)c1F)c1ccc(OCC2CC2)cn1 [(R)-4-(1-(5-(cyclopropylmethoxy)pyridin-2-yl)propoxy)-2,3-difluoro-N-((4-((1-(2-hydroxy-2-methylpropyl)piperidin-4-yl)oxy)piperidin-1-yl)sulfonyl)benzamide]",100 to 500,< 100
"CC[C@@H](Oc1ccc(C(=O)NS(=O)(=O)c2ccc(OC3CCN(CCO)CC3)cc2)c(F)c1F)c1ccc(OCC2CC2)cn1 [(R)-4-(1-(5-(cyclopropylmethoxy)pyridin-2-yl)propoxy)-2,3-difluoro-N-((4-((1-(2-hydroxyethyl)piperidin-4-yl)oxy)phenyl)sulfonyl)benzamide]",100 to 500,< 100
"CC[C@@H](Oc1ccc(C(=O)NS(=O)(=O)c2ccc(OC3CCN(CCOC)CC3)cc2)c(F)c1F)c1ccc(OCC2CC2)cn1 [(R)-4-(1-(5-(cyclopropylmethoxy)pyridin-2-yl)propoxy)-2,3-difluoro-N-((4-((1-(2-methoxyethyl)piperidin-4-yl)oxy)phenyl)sulfonyl)benzamide]",< 100,< 100
"CC[C@@H](Oc1ccc(C(=O)NS(=O)(=O)N2CCC(OC3CCN(CCOC)CC3)CC2)c(F)c1F)c1ccc(OCC2CC2)cn1 [(R)-4-(1-(5-(cyclopropylmethoxy)pyridin-2-yl)propoxy)-2,3-difluoro-N-((4-((1-(2-methoxyethyl)piperidin-4-yl)oxy)piperidin-1-yl)sulfonyl)benzamide]",< 100,< 100
"[2H]C([2H])([2H])N1CCC(Oc2ccc(S(=O)(=O)NC(=O)c3ccc(O[C@H](CC)c4ccc(OCC5CC5)cn4)c(F)c3F)cc2)CC1 [(R)-4-(1-(5-(cyclopropylmethoxy)pyridin-2-yl)propoxy)-2,3-difluoro-N-((4-((1-(methyl-d3)piperidin-4-yl)oxy)phenyl)sulfonyl)benzamide]",< 100,< 100
"CC[C@@H](Oc1ccc(C(=O)NS(=O)(=O)c2ccc(OC3CCN(C(C)C)CC3)cc2)c(F)c1F)c1ccc(OCC2CC2)cn1 [(R)-4-(1-(5-(cyclopropylmethoxy)pyridin-2-yl)propoxy)-2,3-difluoro-N-((4-((1-isopropylpiperidin-4-yl)oxy)phenyl)sulfonyl)benzamide]",100 to 500,< 100
"CC[C@@H](Oc1ccc(C(=O)NS(=O)(=O)c2ccc(OC3CN(C)C3)cc2)c(F)c1F)c1ccc(OCC2CC2)cn1 [(R)-4-(1-(5-(cyclopropylmethoxy)pyridin-2-yl)propoxy)-2,3-difluoro-N-((4-((1-methylazetidin-3-yl)oxy)phenyl)sulfonyl)benzamide]",100 to 500,< 100
"CC[C@@H](Oc1ccc(C(=O)NS(=O)(=O)c2ccc(OC3CCN(C)CC3)cc2)c(F)c1F)c1ccc(OCC2CC2)cn1 [(R)-4-(1-(5-(cyclopropylmethoxy)pyridin-2-yl)propoxy)-2,3-difluoro-N-((4-((1-methylpiperidin-4-yl)oxy)phenyl)sulfonyl)benzamide]",< 100,< 100
"CC[C@@H](Oc1ccc(C(=O)NS(=O)(=O)N2CCC(OC3CCN(C)CC3)CC2)c(F)c1F)c1ccc(OCC2CC2)cn1 [(R)-4-(1-(5-(cyclopropylmethoxy)pyridin-2-yl)propoxy)-2,3-difluoro-N-((4-((1-methylpiperidin-4-yl)oxy)piperidin-1-yl)sulfonyl)benzamide]",100 to 500,< 100
"CC[C@@H](Oc1ccc(C(=O)NS(=O)(=O)c2ccc(OC3CCNCC3)cc2)c(F)c1F)c1ccc(OCC2CC2)cn1 [(R)-4-(1-(5-(cyclopropylmethoxy)pyridin-2-yl)propoxy)-2,3-difluoro-N-((4-(piperidin-4-yloxy)phenyl)sulfonyl)benzamide]",> 500,< 100
"CC[C@@H](Oc1ccc(C(=O)NS(=O)(=O)N2CCN(C(C)C)CC2)c(F)c1F)c1ccc(OCC2CC2)cn1 [(R)-4-(1-(5-(cyclopropylmethoxy)pyridin-2-yl)propoxy)-2,3-difluoro-N-((4-isopropylpiperazin-1-yl)sulfonyl)benzamide]",100 to 500,100 to 500
"CC[C@@H](Oc1ccc(C(=O)NS(=O)(=O)N2CCCN(C)CC2)c(F)c1F)c1ccc(OCC2CC2)cn1 [(R)-4-(1-(5-(cyclopropylmethoxy)pyridin-2-yl)propoxy)-2,3-difluoro-N-((4-methyl-1,4-diazepan-1-yl)sulfonyl)benzamide]",100 to 500,100 to 500
"CC[C@@H](Oc1ccc(C(=O)NS(=O)(=O)N2CCN(C)CC2)c(F)c1F)c1ccc(OCC2CC2)cn1 [(R)-4-(1-(5-(cyclopropylmethoxy)pyridin-2-yl)propoxy)-2,3-difluoro-N-((4-methylpiperazin-1-yl)sulfonyl)benzamide]",< 100,< 100
"CC[C@@H](Oc1ccc(C(=O)NS(=O)(=O)c2ccc(NC3CCN(C)CC3)cn2)c(F)c1F)c1ccc(OCC2CC2)cn1 [(R)-4-(1-(5-(cyclopropylmethoxy)pyridin-2-yl)propoxy)-2,3-difluoro-N-((5-((1-methylpiperidin-4-yl)amino)pyridin-2-yl)sulfonyl)benzamide]",> 500,< 100
"CC[C@@H](Oc1ccc(C(=O)NS(=O)(=O)c2ccc(OC3CCN(C)CC3)cn2)c(F)c1F)c1ccc(OCC2CC2)cn1 [(R)-4-(1-(5-(cyclopropylmethoxy)pyridin-2-yl)propoxy)-2,3-difluoro-N-((5-((1-methylpiperidin-4-yl)oxy)pyridin-2-yl)sulfonyl)benzamide]",> 500,< 100
"CC[C@@H](Oc1ccc(C(=O)NS(=O)(=O)N2CC3(CC(OCCN4CCCC4)C3)C2)c(F)c1F)c1ccc(OCC2CC2)cn1 [(R)-4-(1-(5-(cyclopropylmethoxy)pyridin-2-yl)propoxy)-2,3-difluoro-N-((6-(2-(pyrrolidin-1-yl)ethoxy)-2-azaspiro[3.3]heptan-2-yl)sulfonyl)benzamide]",> 500,< 100
"CC[C@@H](Oc1ccc(C(=O)NS(=O)(=O)c2ccc(OCCN3CCCC3)nn2)c(F)c1F)c1ccc(OCC2CC2)cn1 [(R)-4-(1-(5-(cyclopropylmethoxy)pyridin-2-yl)propoxy)-2,3-difluoro-N-((6-(2-(pyrrolidin-1-yl)ethoxy)pyridazin-3-yl)sulfonyl)benzamide]",> 500,< 100
